The values that follow come from ChEMBL document CHEMBL4312023, “Design of novel monoamine oxidase-B inhibitors based on piperine scaffold: Structure-activity-toxicity, drug-likeness and efflux transport studies” (Eur J Med Chem, 2020).

Series [1] can be described thus: Cytotoxicity against human Caco2 cells assessed as cellular metabolic activity by measuring resazurin reduction at 10 to 50 uM incubated for 24 hrs followed by incubation with resazurin for 1 hr by fluorescence based assay (reference value: >85%). The class given is ADME, cell-based. The following applies: Caco-2 cells, read-out: Activity. Background: The colour change of resazurin is a common sign of viable cells or microbes.

Series [2] addresses T1, Amine oxidase [flavin-containing] B (Homo sapiens, UniProt P27338).
T1 sequence (P27338 whole entry): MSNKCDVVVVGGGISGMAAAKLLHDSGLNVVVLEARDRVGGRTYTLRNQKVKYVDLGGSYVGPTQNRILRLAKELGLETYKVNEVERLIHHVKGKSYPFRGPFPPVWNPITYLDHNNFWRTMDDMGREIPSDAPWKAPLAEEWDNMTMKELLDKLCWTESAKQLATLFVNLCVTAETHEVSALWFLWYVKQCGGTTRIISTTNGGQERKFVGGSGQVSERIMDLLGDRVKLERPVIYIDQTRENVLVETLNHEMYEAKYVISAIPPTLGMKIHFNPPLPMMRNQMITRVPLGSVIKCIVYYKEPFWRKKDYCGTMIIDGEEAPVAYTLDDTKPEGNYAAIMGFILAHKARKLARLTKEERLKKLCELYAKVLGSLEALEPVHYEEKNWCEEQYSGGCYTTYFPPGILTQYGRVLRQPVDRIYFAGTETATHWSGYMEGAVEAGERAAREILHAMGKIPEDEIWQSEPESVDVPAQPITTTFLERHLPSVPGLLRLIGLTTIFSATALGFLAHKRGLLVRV
As to the kind of experiment: Competitive inhibition of human microsomal MAO-B expressed in baculovirus infected BTI-TN-5B1-4 cells assessed as constant Vmax using kynuramine as substrate preincubated with substrate at varying concentrations for 10 mins followed by enzyme addition by Lineweaver-Burk plot analysis.

Series [3] has as its target T2, ATP-dependent translocase ABCB1 (Homo sapiens, UniProt P08183). As to the kind of experiment: Induction of P-gp in human Caco2 cells assessed as decrease in Rho123 intracellular accumulation by measuring increase in ratio between fluorescence intensity of Zos-inhibited Rho123 accumulation and fluorescence intensity of non-inhibited Rho123 accumulation at 10 uM using Rho123 as substrate preincubated for 30 mins in presence of 5 uM P-gp inhibitor, Zos followed by incubation with Rhodamine 123 for 90 mins by fluorescence spectroscopy analysis. The class given is cell-based. The following applies: 1.5 h.

Series [4] addresses T1, Amine oxidase [flavin-containing] B. Description: Competitive inhibition of human microsomal MAO-B expressed in baculovirus infected BTI-TN-5B1-4 cells assessed as increase in substrate Km using kynuramine as substrate preincubated with substrate at varying concentrations for 10 mins followed by enzyme addition by Lineweaver-Burk plot analysis.
The test system of the next series is Caco-2. Description: Effect on P-gp protein expression in human Caco-2 cells at 10 uM incubated for 30 mins. The class given is functional, cell-based.
For series [5], the system named is SH-SY5Y. Description: Induction of intracellular oxidative stress in human SH-SY5Y cells assessed as increase in reactive species level at 10 to 50 uM pretreated with DCFH-DA for 1.5 hrs followed by incubation with compound for 24 hrs by DCFH-DA dye based fluorescence assay relative to control. The class given is cell-based.
Series [6] in a line: (§1) Cytotoxicity against human SH-SY5Y cells assessed as lysosomal activity by measuring neutral red uptake at 10 to 50 uM incubated for 24 hrs followed by incubation with neutral red solution for 2 hrs by microplate reader analysis (reference value: >85%). The following applies: SH-SY5Y cells, read-out: Activity. The class given is cell-based.
The species entered for the next series is Homo sapiens. As to the kind of experiment: Selectivity index, ratio of IC50 for human microsomal MAO-A expressed in baculovirus infected […] cells to IC50 for human microsomal MAO-B expressed in baculovirus infected […] cells using kynuramine as substrate.
For series [7], the target named is T3, Amine oxidase [flavin-containing] A (Homo sapiens, UniProt P21397).
T3 sequence (P21397 whole entry): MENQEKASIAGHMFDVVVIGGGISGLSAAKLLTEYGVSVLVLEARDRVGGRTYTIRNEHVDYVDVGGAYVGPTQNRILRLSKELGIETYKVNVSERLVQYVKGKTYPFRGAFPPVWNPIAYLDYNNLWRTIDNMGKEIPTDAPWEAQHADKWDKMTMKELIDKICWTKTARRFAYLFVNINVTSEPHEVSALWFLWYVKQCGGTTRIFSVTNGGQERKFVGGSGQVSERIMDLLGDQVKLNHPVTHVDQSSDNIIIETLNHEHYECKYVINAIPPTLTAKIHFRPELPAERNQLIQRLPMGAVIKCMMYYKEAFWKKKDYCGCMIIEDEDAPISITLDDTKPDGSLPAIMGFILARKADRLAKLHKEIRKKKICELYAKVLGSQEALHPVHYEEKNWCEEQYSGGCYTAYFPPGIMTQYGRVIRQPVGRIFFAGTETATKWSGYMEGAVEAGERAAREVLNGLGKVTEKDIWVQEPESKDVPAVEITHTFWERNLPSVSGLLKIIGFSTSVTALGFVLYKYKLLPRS
The following applies: BTI-TN-5B1-4, human, read-out: INH.
Description: Inhibition of human microsomal MAO-A expressed in baculovirus infected BTI-TN-5B1-4 cells assessed as reduction in 4-hydroxyquinoline formation at 10 uM using kynuramine as substrate preincubated with substrate for 10 mins followed by enzyme inhibition by spectrophotometric analysis

Series [8] concerns the target T1, Amine oxidase [flavin-containing] B. Description: biochemical. The class given is cell-based, BTI-TN-5B1-4.
Description: Inhibition of human microsomal MAO-B expressed in baculovirus infected BTI-TN-5B1-4 cells assessed as reduction in 4-hydroxyquinoline formation using kynuramine as substrate preincubated with substrate for 10 mins followed by enzyme addition by spectrophotometric analysis
Series [9] is described as follows: (§2) Cytotoxicity against human SH-SY5Y cells assessed as cellular metabolic activity by measuring resazurin reduction at 10 to 50 uM incubated for 24 hrs followed by incubation with resazurin for 2 hrs by fluorescence based assay (reference value: >85%). The class given is ADME, cell-based. The following applies: SH-SY5Y cells, read-out: Activity.
The target in series [10] is T1, Amine oxidase [flavin-containing] B. As to the kind of experiment: Competitive inhibition of human microsomal MAO-B expressed in baculovirus infected BTI-TN-5B1-4 cells assessed as inhibition constant using kynuramine as substrate preincubated with substrate at varying concentrations for 10 mins followed by enzyme addition by Lineweaver-Burk plot analysis.
A short description of series [11]: Cytotoxicity against human Caco2 cells assessed as lysosomal activity by measuring neutral red uptake at 10 to 50 uM incubated for 24 hrs followed by incubation with neutral red solution for 1 hr by microplate reader analysis (reference value: >85%). The class given is cell-based. The following applies: Caco-2 cells, read-out: Activity.
A short description of series [12]: Retention time of compound at pH 7.4 by LC-UV analysis. The class given is physicochemical. The following applies: buffer.
Series [13] has as its system SH-SY5Y. Described as §1. The class given is cell-based. The following applies: sh-sy5y, 24 h, 50 µM.
For series [14], the target named is T2, ATP-dependent translocase ABCB1. Description: Inhibition of P-gp in human Caco2 cells assessed as decrease in Rho123 efflux by measuring decrease in ratio between fluorescence intensity of Zos-inhibited Rho123 accumulation and fluorescence intensity of non-inhibited Rho123 accumulation at 10 uM using Rho123 as substrate preincubated for 30 mins in presence of 5 uM P-gp inhibitor, Zos followed by incubation with Rhodamine 123 for 90 mins by fluorescence spectroscopy analysis. The class given is cell-based. The following applies: 1.5 h. (Passage across Caco-2 layers is used to estimate intestinal permeability.)

A short description of series [15]: Chromatographic hydrophobicity index of compound at 250 uM at pH 7.4 by HPLC analysis. The following applies: pH 7.4, 250 µM. The class given is ADME.
The test system of series [16] is SH-SY5Y. The series is described as §2. The class given is ADME, cell-based. The following applies: sh-sy5y, 24 h, 50 µM.
A short description of series [17]: Chromatographic hydrophobicity index, log D of compound at 250 uM at pH 7.4 by HPLC analysis. The class given is physicochemical. The following applies: buffer.
The target in series [18] is T1, Amine oxidase [flavin-containing] B. As to the kind of experiment: Reversible inhibition of human microsomal MAO-B expressed in baculovirus infected BTI-TN-5B1-4 cells assessed as 4-hydroxyquinoline formation using kynuramine as substrate incubated up to 140 mins by spectrophotometric analysis. The following applies: bti-tn-5b1-4, 140 min.
The target of series [19] is T3, Amine oxidase [flavin-containing] A. Description: biochemical.
Description: Inhibition of human microsomal MAO-A expressed in baculovirus infected BTI-TN-5B1-4 cells assessed as reduction in 4-hydroxyquinoline formation using kynuramine as substrate preincubated with substrate for 10 mins followed by enzyme addition by spectrophotometric analysis
A short description of series [20]: Cytotoxicity against human SH-SY5Y cells assessed as lysosomal activity by measuring neutral red uptake at 50 uM incubated for 24 hrs followed by incubation with neutral red solution for 2 hrs by microplate reader analysis (reference value: >85%). The class given is cell-based. The following applies: read-out: Activity.
The nature of series [21]: Cytotoxicity against human SH-SY5Y cells assessed as cellular metabolic activity by measuring resazurin reduction at 50 uM incubated for 24 hrs followed by incubation with resazurin for 2 hrs by fluorescence based assay (reference value: >85 %). The class given is ADME, cell-based. The following applies: read-out: Activity.
A short description of series [22]: Solubility of compound in sodium phosphate buffer at >10 uM at pH 7.4. The class given is physicochemical.
Series [23] can be described thus: Stability of compound in DMSO-d6 and D2O (7:3) measured after 30 mins to 1 hr in presence of glutathione by thiol trapping assay based 1H-NMR analysis. The class given is physicochemical.

Calls of active or inactive are those of the source. No cut-off for these calls is given here.

T2 sequence (P08183 whole entry): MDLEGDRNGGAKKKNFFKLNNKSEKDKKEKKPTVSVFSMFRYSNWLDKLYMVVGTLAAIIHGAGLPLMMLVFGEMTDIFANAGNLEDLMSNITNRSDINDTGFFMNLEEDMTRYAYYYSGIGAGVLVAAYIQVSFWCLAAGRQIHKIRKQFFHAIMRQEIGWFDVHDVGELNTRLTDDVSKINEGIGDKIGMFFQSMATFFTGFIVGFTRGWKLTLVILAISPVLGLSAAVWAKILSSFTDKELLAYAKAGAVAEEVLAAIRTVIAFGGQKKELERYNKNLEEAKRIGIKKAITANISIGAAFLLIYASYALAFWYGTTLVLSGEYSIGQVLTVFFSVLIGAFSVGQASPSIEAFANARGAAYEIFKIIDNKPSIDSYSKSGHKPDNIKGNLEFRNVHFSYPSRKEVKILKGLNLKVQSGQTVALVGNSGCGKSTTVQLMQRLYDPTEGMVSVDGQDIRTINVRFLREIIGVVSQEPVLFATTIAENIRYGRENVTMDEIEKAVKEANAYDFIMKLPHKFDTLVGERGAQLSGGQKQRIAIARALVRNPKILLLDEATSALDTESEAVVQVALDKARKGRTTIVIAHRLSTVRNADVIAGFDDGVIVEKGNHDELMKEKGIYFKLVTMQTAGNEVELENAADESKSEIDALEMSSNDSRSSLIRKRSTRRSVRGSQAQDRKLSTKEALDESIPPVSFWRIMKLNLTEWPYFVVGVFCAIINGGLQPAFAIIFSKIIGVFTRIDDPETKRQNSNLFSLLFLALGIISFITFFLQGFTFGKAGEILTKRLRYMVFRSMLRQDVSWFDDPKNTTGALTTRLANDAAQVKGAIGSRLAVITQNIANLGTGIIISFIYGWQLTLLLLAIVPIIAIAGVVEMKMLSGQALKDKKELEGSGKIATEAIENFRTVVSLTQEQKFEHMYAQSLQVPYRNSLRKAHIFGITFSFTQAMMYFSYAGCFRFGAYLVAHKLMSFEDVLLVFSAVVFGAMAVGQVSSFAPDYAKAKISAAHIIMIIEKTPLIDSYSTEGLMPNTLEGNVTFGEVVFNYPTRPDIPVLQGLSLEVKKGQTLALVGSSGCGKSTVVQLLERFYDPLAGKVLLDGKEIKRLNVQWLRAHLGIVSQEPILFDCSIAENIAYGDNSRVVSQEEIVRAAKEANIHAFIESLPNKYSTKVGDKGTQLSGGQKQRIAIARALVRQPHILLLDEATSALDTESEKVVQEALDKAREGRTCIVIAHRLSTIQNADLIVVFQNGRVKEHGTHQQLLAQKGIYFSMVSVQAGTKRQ

Regarding `N#C/C(=C\C=C\c1ccc2c(c1)OCO2)C(=O)N1CCCCC1`, the viability at 24 h, up to 50 µM in series [1] and in series [9] was above 85% each time. In addition, the “inhibition (INH)” value in [2] and in series [4] was “Active” each time. Also, the Activity entry is “Not Active” in series [3] and 111.1% in the series with SH-SY5Y [5]. Also, in the series with Caco-2, the result was inactive. The viability at 24 h in [6] and in series [11] was above 85% throughout. The Ratio IC50 in the series listed under Homo sapiens was above 70. Besides, the inhibition at 10 µM in series [7] is below 50%. The compound further returned an IC50 in [8] of 143 nM. Besides, the Ki in series [10] is 20.6 nM.

With `O=C(/C=C/C=C/c1ccc2c(c1)OCO2)N1CCCCC1` [PIPERINE], the Activity result in series [3] was “Not Active”; in the series on SH-SY5Y [13], “Non-Toxic”; in the series on SH-SY5Y [16] it was “Non-Toxic”. In addition, the Retention_time in [12] worked out at 10.61 min. Moreover, the Ratio IC50 in the series filed under Homo sapiens was 10. Further, in series [7], the inhibition at 10 µM is below 50%. Besides, the “inhibition (INH)” value in [14] is reported as “Not Active”. For the same compound, the CHI in series [15] worked out at 73.45. The compound also gave a half-inhibitory concentration (IC50) in series [8] of 1050 nM. The chromatographic logD at 250 µM in series [17] worked out at 2.39.

In the case of `C[C@H](NCc1ccc(OCc2cccc(F)c2)cc1)C(N)=O` [SAFINAMIDE], the “inhibition (INH)” value in [18] is listed as “Active”.

On to `O=C(/C=C/C=C/c1ccc2c(c1)OCO2)OCc1ccccc1`, for which the viability at 24 h, up to 50 µM in series [1] and in [9] was above 85% each time. The figures for the half-maximal inhibitory concentration (IC50) in series [19] and in series [8] were 4.24 µM and 167 nM, respectively. In addition, the “inhibition (INH)” value in series [2] is “Active”; in series [4] it was “Active”; in series [14], “Not Active”. Also, the Activity entry in series [3] was “Not Active”. In addition, the Retention_time in series [12] was 12.46 min. Also, the viability at 24 h in series [6] and in series [11] was above 85% throughout. For the same compound, the Ratio IC50 in the series filed under Homo sapiens is 25. The compound also registered a CHI in [15] of 102.14. In [10], the Ki turned out to be 75 nM. In series [17], the chromatographic logD at 250 µM was 3.9.

On to `O=C(/C=C/C=C/c1ccc2c(c1)OCO2)Oc1ccccc1`, for which the viability at 24 h, 50 µM was found to be 59.4% in series [20] and 79.7% in [21]. Further, the Ratio IC50 in the series filed under Homo sapiens is above 64. In series [8], this compound had an IC50 of 156 nM. In series [22], the solubility result is “Insoluble”.

As to `N#C/C(=C\C=C\c1ccc2c(c1)OCO2)C(=O)OCc1ccccc1`, the viability at 24 h, up to 50 µM in series [1] and in series [9] was above 85% in each case. In addition, in [23], the Stability result is listed as “Stable”. The “inhibition (INH)” value in series [2], in series [4], in series [18] and in series [14] was “Active” in each case. For the same compound, the Retention_time in series [12] is given as 12.11 min. Besides, the viability at 24 h in series [6] and in series [11] was above 85% in each case. Besides, the Ratio IC50 in the series listed under Homo sapiens was above 211. Further, the inhibition at 10 µM in series [7] is below 50%. The compound also gave a CHI in series [15] of 96.73. Moreover, the midpoint of inhibition in series [8], the IC50, lay at 47.4 nM. Besides, in [10], the Ki was found to be 44.1 nM. This compound also returned a chromatographic logD at 250 µM in [17] of 3.61.

For `N#C/C(=C\C=C\c1ccc2c(c1)OCO2)C(=O)OCCc1ccccc1`, the viability at 24 h, up to 50 µM in [1] and in [9] was above 85% each time. In series [12], this compound had a Retention_time of 12.37 min. In addition, the viability at 24 h in [6] and in series [11] was above 85% each time. Moreover, in the series filed under Homo sapiens, the Ratio IC50 is above 101. Further, the inhibition at 10 µM in series [7] is below 50%. Also, the “inhibition (INH)” value in series [14] is given as “Active”. This compound returned a CHI in series [15] of 100.75. In series [8], half-maximal inhibition (IC50) was put at 99.2 nM. In series [17], the chromatographic logD at 250 µM worked out at 3.82.

What is called IC50 is the concentration that gives 50% inhibition. Read a low IC50 as greater potency. The term Ki denotes the equilibrium dissociation constant of an inhibitor or competing ligand from its target. Usually chromatographic logD stands for a lipophilicity value derived from retention on a column.
